According to US12617779B2, “Self degradation-type CDK9 inhibitor prodrug and liposome encapsulating same” (Sumitomo Pharma Co., Ltd., priority 2021, dated 2026):

Tests used:
[1] = Stability evaluation of solution formulation (Experimental Example 2); assay type: physicochemical; settings: for Stability / conversion to Alvocidib in solution formulation at pH 3: pH 3, 5° C.; for Stability / conversion to Alvocidib in solution formulation at pH 3 / Stability / conversion to Alvocidib in solution formulation at pH 4: up to 4 weeks; for Stability / conversion to Alvocidib in solution formulation at pH 4: pH 4, 5° C.
Procedure: For Example 1, Example 2, Example 5, Example 6, Comparative Example 13 and Comparative Example 14, the attrition rate of the test compound and the conversion rate of the test compound to Alvocidib in a solution formulation were calculated by the following method.
Example 1, Example 2, Example 5, Example 6, Comparative Example 13 and Comparative Example 14 were each added to buffer solutions adjusted to pH 3.0, 4.0 and 5.0, respectively, at a concentration of 0.1 mg/mL, and left at 5° C. After 0, 1, 2 and 4 weeks, the residual rates of the compounds of Example 1, Example 2, […], Comparative Example 13 and Comparative Example 14 and the production rate of Alvocidib were determined by HPLC.
The buffer solutions used at each pH are as follows. • pH 3.0: 5 mM tartrate buffer solution/10% sucrose solution (pH 3.0) • pH 4.0: 5 mM tartrate buffer solution/10% sucrose solution (pH 4.0) • pH 5.0: 5 mM tartrate buffer solution/10% sucrose solution (pH 5.0)
The measurement conditions for HPLC are as follows.
• column: Acquity UPLC BEH C18, 1.7 um, 50×2.1 mm • column temperature: 40° C. • mobile phase: • A: water containing 0.1% trifluoroacetic acid • B: acetonitrile • A/B (min): • 80/20(0)→75/25(3)→0/100(3.5)→0/100(4)→80/20(4.01)→80/20(5) • flow rate: 0.8 mL/min • detection: ultraviolet visible detector, measurement wavelength 254 nm • injection: 3 μL

[2] = tested on: A673 cells; experiment: Drug efficacy evaluation test using tumor-bearing mice transplanted with A673 cells (Experimental Example 8); assay type: in vivo, BALB/c mice; settings: liposome formulation, tail vein, 50 mg/kg twice a week
Procedure: The liposome formulation encapsulating the compound of the present disclosure was treated and evaluated for anti-tumor effect and weight loss.
The liposome formulations were prepared as follows. The liposomes encapsulating the compounds of Example 1, Example 2, Example 5 and Example 6 were prepared in the same manner as in Experimental Example 4, respectively. The liposome outer solution was replaced with 10 mM tartrate buffer solution/10% sucrose solution (pH4.0) using a dialysis cassette (Slide-A-Lyzer G2 Dialysis Cassettes 20K MWCO, manufactured by Thermo Scientific), followed by filtration through a 0.22 μm membrane filter.
A673 cells (ATCC) were intradermally transplanted into 5-week-old BALB/c mice (CAnN.Cg-Foxnlnu/CrlCrlj, female, Charles River, Japan) around the ventral region at 3×10^6 cells/mouse. After confirming the engraftment of A673 cells 6 days after transplantation, they were divided into groups based on tumor diameter and body weight, and liposome formulations encapsulating Example 1, Example 2, Example 5 and Example 6 were administered through the tail vein at dose of 50 mg/kg twice a week, respectively. […] The tumor volume was measured over time from the start of administration, and the tumor volume reduction effect due to compound administration was evaluated. The tumor volume was calculated by the following formula using the short and long diameters of the tumor measured with an electronic caliper (Mitutoyo). For comparison in this test, an empty liposome solution prepared in the same manner as in Experimental Example 1 was used.
The anti-tumor effect was evaluated by comparing the control group administered with the empty liposome solution and the administration group of the compound of the present disclosure, and calculating T/C by the following formula.

[3] = solution formulation, pH3.0, 0 week
[4] = solution formulation, pH3.0, 1 week
[5] = solution formulation, pH3.0, 2 week
[6] = solution formulation, pH3.0, 4 week
[7] = solution formulation, pH4.0, 0 week
[8] = solution formulation, pH4.0, 1 week
[9] = solution formulation, pH4.0, 2 week
[10] = solution formulation, pH4.0, 4 week
[11] = solution formulation, pH5.0, 0 week
[12] = solution formulation, pH5.0, 1 week
[13] = solution formulation, pH5.0, 2 week
[14] = solution formulation, pH5.0, 4 week

| Structure (SMILES) | Stability / conversion to Alvocidib in solution formulation at pH 3 [1] | Stability / conversion to Alvocidib in solution formulation at pH 4 [1] | Production rate of Alvocidib [1, 3] [%] | Production rate of Alvocidib [1, 4] [%] | Production rate of Alvocidib [1, 5] [%] | Production rate of Alvocidib [1, 6] [%] | Production rate of Alvocidib [1, 7] [%] | Production rate of Alvocidib [1, 8] [%] | Production rate of Alvocidib [1, 9] [%] | Production rate of Alvocidib [1, 10] [%] | Production rate of Alvocidib [1, 11] [%] | Production rate of Alvocidib [1, 12] [%] | Production rate of Alvocidib [1, 13] [%] | Production rate of Alvocidib [1, 14] [%] | Effect on tumor volume [2] | Residual rate [1, 3] [%] | Residual rate [1, 4] [%] | Residual rate [1, 5] [%] | Residual rate [1, 6] [%] | Residual rate [1, 7] [%] | also measured |
| --- | --- | --- | --- | --- | --- | --- | --- | --- | --- | --- | --- | --- | --- | --- | --- | --- | --- | --- | --- | --- | --- |
| CCN(C[C@@H]1CCCCN1)C(=O)Oc1cc(O)c2c(=O)cc(-c3ccccc3Cl)oc2c1[C@H]1CCN(C)C[C@H]1O [Example 1, 2-(2-chlorophenyl)-5-hydroxy-8-[(3S,4R)-3-hydroxy-1-methylpiperidin-4-yl]-4-oxo-4H-1-benzopyran-7-yl ethyl{[(2S)-piperidin-2-yl]methyl}carbamate ditrifluoroacetate] | stable | stable | 0.0 | 0.0 | 0.1 | 0.1 | 0.0 | 0.1 | 0.2 | 0.4 | 0.1 | 1.2 | 1.9 | 3.2 | significantly inhibited the increase in tumor volume | – | – | – | – | – | Residual rate ([1]; solution formulation pH3.0, 0 week, 5° C., 0.1 mg/mL): 99.2%; Residual rate ([1]; solution formulation pH3.0, 1 week, 5° C., 0.1 mg/mL): 99.2%; Residual rate ([1]; solution formulation pH3.0, 2 weeks, 5° C., 0.1 mg/mL): 99.0%; Residual rate ([1]; solution formulation pH3.0, 4 weeks, 5° C., 0.1 mg/mL): 99.0%; Residual rate ([1]; solution formulation pH4.0, 0 week, 5° C., 0.1 mg/mL): 99.5%; Residual rate ([1]; solution formulation pH4.0, 1 week, 5° C., 0.1 mg/mL): 99.3%; Residual rate ([1]; solution formulation pH4.0, 2 weeks, 5° C., 0.1 mg/mL): 99.1%; Residual rate ([1]; solution formulation pH4.0, 4 weeks, 5° C., 0.1 mg/mL): 99.1%; Residual rate ([1]; solution formulation pH5.0, 0 week, 5° C., 0.1 mg/mL): 99.4%; Residual rate ([1]; solution formulation pH5.0, 1 week, 5° C., 0.1 mg/mL): 98.5%; Residual rate ([1]; solution formulation pH5.0, 2 weeks, 5° C., 0.1 mg/mL): 97.6%; Residual rate ([1]; solution formulation pH5.0, 4 weeks, 5° C., 0.1 mg/mL): 96.5%; Weight loss of 10% or more compared to the start of administration [2]: without weight loss |
| CCN(C[C@H]1CCCCN1)C(=O)Oc1cc(O)c2c(=O)cc(-c3ccccc3Cl)oc2c1[C@H]1CCN(C)C[C@H]1O [Example 2, 2-(2-chlorophenyl)-5-hydroxy-8-[(3S,4R)-3-hydroxy-1-methylpiperidin-4-yl]-4-oxo-4H-1-benzopyran-7-yl ethyl{[(2R)-piperidin-2-yl]methyl}carbamate] | stable | stable | 0.0 | 0.0 | 0.0 | 0.1 | 0.0 | 0.1 | 0.2 | 0.3 | 0.1 | 1.1 | 1.9 | 3.1 | inhibited the increase in tumor volume | 96.5 | 96.5 | 96.4 | 96.5 | 96.4 | Residual rate [1, 8]: 96.5%; Residual rate [1, 9]: 96.4%; Residual rate [1, 10]: 96.4%; Residual rate [1, 11]: 96.4%; Residual rate [1, 12]: 95.5%; Residual rate [1, 13]: 94.5%; Residual rate [1, 14]: 93.0%; Weight loss of 10% or more compared to the start of administration [2]: without weight loss |
| CCCN(C[C@@H]1CCCCN1)C(=O)Oc1cc(O)c2c(=O)cc(-c3ccccc3Cl)oc2c1[C@H]1CCN(C)C[C@H]1O [Example 5, 2-(2-chlorophenyl)-5-hydroxy-8-[(3S,4R)-3-hydroxy-1-methylpiperidin-4-yl]-4-oxo-4H-1-benzopyran-7-yl {[(2S)-piperidin-2-yl]methyl}propylcarbamate] | stable | stable | 0.2 | 0.2 | 0.3 | 0.3 | 0.2 | 0.3 | 0.4 | 0.5 | 0.4 | 1.2 | 2.1 | 3.7 | inhibited the increase in tumor volume | 98.2 | 98.2 | 98.1 | 98.1 | 98.2 | Residual rate [1, 8]: 98.2%; Residual rate [1, 9]: 98.1%; Residual rate [1, 10]: 98.1%; Residual rate [1, 11]: 98.1%; Residual rate [1, 12]: 97.2%; Residual rate [1, 13]: 96.6%; Residual rate [1, 14]: 95.0% |
| CCCN(C[C@H]1CCCCN1)C(=O)Oc1cc(O)c2c(=O)cc(-c3ccccc3Cl)oc2c1[C@H]1CCN(C)C[C@H]1O [Example 6, 2-(2-chlorophenyl)-5-hydroxy-8-[(3S,4R)-3-hydroxy-1-methylpiperidin-4-yl]-4-oxo-4H-1-benzopyran-7-yl {[(2R)-piperidin-2-yl]methyl}propylcarbamate] | stable | stable | 0.5 | 0.5 | 0.6 | 0.6 | 0.5 | 0.7 | 0.8 | 0.9 | 0.7 | 1.6 | 2.6 | 4.6 | inhibited the increase in tumor volume | 98.8 | 98.8 | 98.8 | 98.8 | 98.8 | Residual rate [1, 8]: 98.7%; Residual rate [1, 9]: 98.5%; Residual rate [1, 10]: 98.2%; Residual rate [1, 11]: 98.7%; Residual rate [1, 12]: 97.0%; Residual rate [1, 13]: 95.3%; Residual rate [1, 14]: 91.8% |
